Experimental data published in ChEMBL document CHEMBL3774314, “Ammonium tetrathiomolybdate as a water-soluble and slow-release hydrogen sulfide donor” (Bioorg Med Chem Lett, 2016).
The source made the active and inactive calls. The rule behind the calls is not given here.

Legend:
HaCaT [1] = experiment: Effect on mitochondrial membrane potential in human HaCaT cells after 1 hr by Rhodamine 123 staining based fluorescence assay; assay type: ADME, cell-based
HaCaT [2] = experiment: Toxicity in human HaCaT cells assessed as H2O2-induced decrease in cell viability at 400 uM after 1 hr by CCK8 assay; assay type: cell-based
[3] = Induction of Hydrogen sulfide production at pH 5 to 8 measured upto 15 hrs by UV-vis method based zinc-sulfide precipitation based methylene blue Method; assay type: physicochemical; details: pH 5, 15 h
HaCaT [4] = experiment: Cytoprotective in human HaCaT cells assessed as inhibition of H2O2-induced decrease in mitochondrial membrane potential at 200 uM preincubated for 1 hr followed by H2O2 addition by Rhodamine 123 staining based fluorescence assay; assay type: functional, cell-based
HaCaT [5] = experiment: Cytoprotective activity in human HaCaT cells assessed as inhibition of H2O2-induced decrease in cell viability at 50 to 200 uM after 1 hr by CCK8 assay; assay type: functional, cell-based
HaCaT [6] = experiment: Cytoprotective activity in human HaCaT cells assessed as inhibition of H2O2-induced decrease in LDH release at 200 uM; assay type: functional, cell-based

| Sequence | Activity (HaCaT [1]) | Activity (HaCaT [2]) | Activity [3] | Activity (HaCaT [4]) | Activity (HaCaT [5]) | Activity (HaCaT [6]) |
| --- | --- | --- | --- | --- | --- | --- |
| TIOMOLIBDATE DIAMMONIUM [listing 1 of 2 here] | Non-toxic | Toxic | Active |  |  |  |
| TIOMOLIBDATE DIAMMONIUM [listing 2 of 2 here] |  |  |  | Active | Active | Active |
